Tests used:
Experiment in all cases: relative viability (nuclei count vs DMSO), 5 days (fraction); higher = more cells survive
201T = system: 201T
How it was run: (§1)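 Lung cancer cell lines in 1536-well plates were dosed by pin tool the day after seeding, either with one drug alone or with a fixed anchor-drug dose plus five library-drug doses (not always all listed) in √10 steps. After 5 days, cells were fixed and their nuclei stained in one step (final 0.05% Triton X-100, 1% formaldehyde, 1 ug/ml Hoechst), then counted on 4× images. Relative viability is the nuclei count in treated wells divided by that in vehicle wells. Values are medians of duplicate plates.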

ABC-1 = system: ABC-1
How it was run: as §1

EMC-BAC-2 = system: EMC-BAC-2
How it was run: as §1

EPLC-272H = system: EPLC-272H
How it was run: as §1

HCC-78 = system: HCC-78
How it was run: as §1

LCLC-103H = system: LCLC-103H
How it was run: as §1

LOU-NH91 = system: LOU-NH91
How it was run: as §1

NCI-H1395 = system: NCI-H1395
How it was run: as §1

NCI-H1437 = system: NCI-H1437
How it was run: as §1

NCI-H1651 = system: NCI-H1651
How it was run: as §1

NCI-H1734 = system: NCI-H1734
How it was run: as §1

NCI-H1793 = system: NCI-H1793
How it was run: as §1

NCI-H1915 = system: NCI-H1915
How it was run: as §1

NCI-H1975 = system: NCI-H1975
How it was run: as §1

NCI-H2023 = system: NCI-H2023
How it was run: as §1

NCI-H23 = system: NCI-H23
How it was run: as §1

NCI-H2405 = system: NCI-H2405
How it was run: as §1

NCI-H647 = system: NCI-H647
How it was run: as §1

NCI-H661 = system: NCI-H661
How it was run: as §1

RERF-LC-KJ = system: RERF-LC-KJ
How it was run: as §1

SK-LU-1 = system: SK-LU-1
How it was run: as §1

UMC-11 = system: UMC-11
How it was run: as §1

Compound `O=c1[nH]c2ccccc2n1C1CCN(CCCC(c2ccc(F)cc2)c2ccc(F)cc2)CC1` [Pimozide] + O=C(CCCCCCC(=O)Nc1ccccc1)NO [Vorinostat] (partner 1 µM) has a relative viability (201T; first compound 0.08 µM) of 0.881, a relative viability (201T; first compound 0.253 µM) of 0.964 and a relative viability (201T; first compound 0.8 µM) of 0.863. For the same compound, the relative viability (201T; first compound 2.53 µM) was 0.942, the relative viability (201T; first compound 8 µM) was 0.72 and the relative viability (ABC-1; first compound 0.08 µM) was 1.3. The relative viability (ABC-1; first compound 0.253 µM) was 1.15, the relative viability (ABC-1; first compound 0.8 µM) was 0.884 and the relative viability (ABC-1; first compound 2.53 µM) was 0.908. It also gave a relative viability (ABC-1; first compound 8 µM) of 0.719, a relative viability (EMC-BAC-2; first compound 0.08 µM) of 0.433 and a relative viability (EMC-BAC-2; first compound 0.253 µM) of 0.45. For the same compound, the relative viability (EMC-BAC-2; first compound 0.8 µM) was 0.384, the relative viability (EMC-BAC-2; first compound 2.53 µM) was 0.451 and the relative viability (EMC-BAC-2; first compound 8 µM) was 0.456. For the same compound, the relative viability (EPLC-272H; first compound 0.08 µM) was 0.402, the relative viability (EPLC-272H; first compound 0.253 µM) was 0.453 and the relative viability (EPLC-272H; first compound 0.8 µM) was 0.417. For the same compound, the relative viability (EPLC-272H; first compound 2.53 µM) was 0.418, the relative viability (EPLC-272H; first compound 8 µM) was 0.307 and the relative viability (HCC-78; first compound 0.08 µM) was 0.371. For the same compound, the relative viability (HCC-78; first compound 0.8 µM) was 0.369, the relative viability (HCC-78; first compound 2.53 µM) was 0.453 and the relative viability (HCC-78; first compound 8 µM) was 0.447. The relative viability (LCLC-103H; first compound 0.08 µM) was 0.814, the relative viability (LCLC-103H; first compound 0.253 µM) was 0.802 and the relative viability (LCLC-103H; first compound 0.8 µM) was 0.598. The relative viability (LCLC-103H; first compound 2.53 µM) was 0.759, the relative viability (LCLC-103H; first compound 8 µM) was 0.717 and the relative viability (LOU-NH91; first compound 0.08 µM) was 0.741. It also gave a relative viability (LOU-NH91; first compound 0.253 µM) of 0.883, a relative viability (LOU-NH91; first compound 0.8 µM) of 0.852 and a relative viability (LOU-NH91; first compound 2.53 µM) of 0.98. It also gave a relative viability (LOU-NH91; first compound 8 µM) of 0.872, a relative viability (NCI-H1395; first compound 0.08 µM) of 0.696 and a relative viability (NCI-H1395; first compound 0.253 µM) of 0.607. The relative viability (NCI-H1395; first compound 0.8 µM) was 0.629, the relative viability (NCI-H1395; first compound 2.53 µM) was 0.711 and the relative viability (NCI-H1395; first compound 8 µM) was 0.628. It also gave a relative viability (NCI-H1437; first compound 0.08 µM) of 0.786, a relative viability (NCI-H1437; first compound 0.253 µM) of 0.763 and a relative viability (NCI-H1437; first compound 0.8 µM) of 0.767. The relative viability (NCI-H1437; first compound 2.53 µM) was 0.67, the relative viability (NCI-H1437; first compound 8 µM) was 0.405 and the relative viability (NCI-H1651; first compound 0.08 µM) was 0.565. The relative viability (NCI-H1651; first compound 0.253 µM) was 0.507, the relative viability (NCI-H1651; first compound 0.8 µM) was 0.599 and the relative viability (NCI-H1651; first compound 2.53 µM) was 0.578. It also gave a relative viability (NCI-H1651; first compound 8 µM) of 0.593, a relative viability (NCI-H1734; first compound 0.08 µM) of 0.841 and a relative viability (NCI-H1734; first compound 0.253 µM) of 0.739. For the same compound, the relative viability (NCI-H1734; first compound 0.8 µM) was 0.569, the relative viability (NCI-H1734; first compound 2.53 µM) was 0.763 and the relative viability (NCI-H1734; first compound 8 µM) was 0.847. The relative viability (NCI-H1793; first compound 0.08 µM) was 0.642, the relative viability (NCI-H1793; first compound 0.253 µM) was 0.761 and the relative viability (NCI-H1793; first compound 0.8 µM) was 0.693. It also gave a relative viability (NCI-H1793; first compound 2.53 µM) of 0.761, a relative viability (NCI-H1793; first compound 8 µM) of 0.624 and a relative viability (NCI-H1915; first compound 0.08 µM) of 0.525. It also gave a relative viability (NCI-H1915; first compound 0.253 µM) of 0.48, a relative viability (NCI-H1915; first compound 2.53 µM) of 0.432 and a relative viability (NCI-H1915; first compound 8 µM) of 0.487. For the same compound, the relative viability (NCI-H1975; first compound 0.08 µM) was 0.746, the relative viability (NCI-H1975; first compound 0.253 µM) was 0.676 and the relative viability (NCI-H1975; first compound 0.8 µM) was 0.672. For the same compound, the relative viability (NCI-H1975; first compound 2.53 µM) was 0.696, the relative viability (NCI-H1975; first compound 8 µM) was 0.563 and the relative viability (NCI-H2023; first compound 0.08 µM) was 0.583. It also gave a relative viability (NCI-H2023; first compound 0.253 µM) of 0.747, a relative viability (NCI-H2023; first compound 0.8 µM) of 0.353 and a relative viability (NCI-H2023; first compound 2.53 µM) of 0.547. The relative viability (NCI-H2023; first compound 8 µM) was 0.484, the relative viability (NCI-H23; first compound 0.08 µM) was 0.573 and the relative viability (NCI-H23; first compound 0.253 µM) was 0.551. The relative viability (NCI-H23; first compound 0.8 µM) was 0.49, the relative viability (NCI-H23; first compound 2.53 µM) was 0.575 and the relative viability (NCI-H23; first compound 8 µM) was 0.52. For the same compound, the relative viability (NCI-H2405; first compound 0.08 µM) was 1.01, the relative viability (NCI-H2405; first compound 0.253 µM) was 0.964 and the relative viability (NCI-H2405; first compound 0.8 µM) was 0.955. It also gave a relative viability (NCI-H2405; first compound 2.53 µM) of 1.01, a relative viability (NCI-H2405; first compound 8 µM) of 0.791 and a relative viability (NCI-H647; first compound 0.08 µM) of 0.5. For the same compound, the relative viability (NCI-H647; first compound 0.253 µM) was 0.577, the relative viability (NCI-H647; first compound 0.8 µM) was 0.621 and the relative viability (NCI-H647; first compound 2.53 µM) was 0.268. The relative viability (NCI-H647; first compound 8 µM) was 0.431, the relative viability (NCI-H661; first compound 0.08 µM) was 0.667 and the relative viability (NCI-H661; first compound 0.253 µM) was 0.741. The relative viability (NCI-H661; first compound 0.8 µM) was 0.723, the relative viability (NCI-H661; first compound 2.53 µM) was 0.699 and the relative viability (NCI-H661; first compound 8 µM) was 0.64. It also gave a relative viability (RERF-LC-KJ; first compound 0.08 µM) of 0.616, a relative viability (RERF-LC-KJ; first compound 0.253 µM) of 0.677 and a relative viability (RERF-LC-KJ; first compound 0.8 µM) of 0.612. The relative viability (RERF-LC-KJ; first compound 2.53 µM) was 0.463, the relative viability (RERF-LC-KJ; first compound 8 µM) was 0.613 and the relative viability (SK-LU-1; first compound 0.08 µM) was 0.785. It also gave a relative viability (SK-LU-1; first compound 0.253 µM) of 0.72, a relative viability (SK-LU-1; first compound 0.8 µM) of 0.501 and a relative viability (SK-LU-1; first compound 2.53 µM) of 0.724. For the same compound, the relative viability (SK-LU-1; first compound 8 µM) was 0.617, the relative viability (UMC-11; first compound 0.08 µM) was 0.426 and the relative viability (UMC-11; first compound 0.253 µM) was 0.388. The relative viability (UMC-11; first compound 0.8 µM) was 0.348, the relative viability (UMC-11; first compound 2.53 µM) was 0.382 and the relative viability (UMC-11; first compound 8 µM) was 0.318.

— the supplement of paper PMC10307832
